The IC50 is the concentration that inhibits the measured activity by half. High values mean weaker potency in that assay, low ones greater potency in that assay.

The source of these data is patent US20240208968A1, “ALPHA V BETA 6 AND ALPHA V BETA 1 INTEGRIN INHIBITORS AND USES THEREOF” (DiCE Molecules SV, Inc., priority 2021, published 2024).

One test has as its target αvβ1 (Homo sapiens, UniProt P05556+P06756). As to the kind of experiment: Solid Phase Integrin αvβ1 Assay. The test is classed as binding. In outline:
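Compound competes for αvβ1 binding to immobilized TGFb1-LAP (1 µg/mL coat) in Mn2+ (1 mM MnCl2), 2% BSA binding buffer over 90 min at room temperature, integrin added at 0.2 µg/mL. Read-out: streptavidin-HRP/TMB; IC50 from Levenberg-Marquardt four-parameter fit.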

Another test deals with αvβ6 (Homo sapiens, UniProt P06756+P18564). As to the kind of experiment: Solid Phase Integrin αvβ6 Assay. The class given is binding. In outline:
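Inhibition of αvβ6 binding to immobilized recombinant TGFb1-LAP (1 μg/mL coating), 1 h at room temperature with 1 mM MnCl2 in BSA/TBST buffer, integrin diluted to 0.2 μg/mL before addition. Streptavidin-HRP/TMB read-out; four-parameter logistic fitting gave IC50.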

SMILES strings stand for the structures. Structures can show the parent of a compound that is named as a salt.

Chain of αvβ1 (P06756 31-992 limits assumed): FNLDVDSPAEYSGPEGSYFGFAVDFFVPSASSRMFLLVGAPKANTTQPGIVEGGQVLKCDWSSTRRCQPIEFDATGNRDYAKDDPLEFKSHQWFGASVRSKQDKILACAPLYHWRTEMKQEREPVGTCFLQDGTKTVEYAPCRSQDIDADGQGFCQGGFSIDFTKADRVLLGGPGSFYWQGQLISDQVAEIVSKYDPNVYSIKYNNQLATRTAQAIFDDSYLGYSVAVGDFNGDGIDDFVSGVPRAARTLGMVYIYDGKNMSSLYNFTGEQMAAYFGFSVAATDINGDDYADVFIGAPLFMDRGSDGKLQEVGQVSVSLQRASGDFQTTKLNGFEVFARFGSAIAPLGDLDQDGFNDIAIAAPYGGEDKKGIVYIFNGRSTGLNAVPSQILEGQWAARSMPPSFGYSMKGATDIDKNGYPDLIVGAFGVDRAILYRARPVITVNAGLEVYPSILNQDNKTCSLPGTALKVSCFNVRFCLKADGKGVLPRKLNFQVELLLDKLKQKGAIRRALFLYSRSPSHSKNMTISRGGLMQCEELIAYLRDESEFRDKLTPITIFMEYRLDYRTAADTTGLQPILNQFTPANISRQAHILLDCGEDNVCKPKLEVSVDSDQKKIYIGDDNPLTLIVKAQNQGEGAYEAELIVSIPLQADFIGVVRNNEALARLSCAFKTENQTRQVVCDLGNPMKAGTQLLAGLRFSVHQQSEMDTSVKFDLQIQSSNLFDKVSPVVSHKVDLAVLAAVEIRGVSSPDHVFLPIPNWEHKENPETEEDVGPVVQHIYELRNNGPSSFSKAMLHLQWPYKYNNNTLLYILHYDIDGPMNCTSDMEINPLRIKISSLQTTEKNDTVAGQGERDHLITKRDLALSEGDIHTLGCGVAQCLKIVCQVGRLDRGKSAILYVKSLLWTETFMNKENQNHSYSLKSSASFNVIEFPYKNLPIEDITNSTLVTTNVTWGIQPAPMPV
Chain of αvβ1 (P05556 21-728 limits assumed): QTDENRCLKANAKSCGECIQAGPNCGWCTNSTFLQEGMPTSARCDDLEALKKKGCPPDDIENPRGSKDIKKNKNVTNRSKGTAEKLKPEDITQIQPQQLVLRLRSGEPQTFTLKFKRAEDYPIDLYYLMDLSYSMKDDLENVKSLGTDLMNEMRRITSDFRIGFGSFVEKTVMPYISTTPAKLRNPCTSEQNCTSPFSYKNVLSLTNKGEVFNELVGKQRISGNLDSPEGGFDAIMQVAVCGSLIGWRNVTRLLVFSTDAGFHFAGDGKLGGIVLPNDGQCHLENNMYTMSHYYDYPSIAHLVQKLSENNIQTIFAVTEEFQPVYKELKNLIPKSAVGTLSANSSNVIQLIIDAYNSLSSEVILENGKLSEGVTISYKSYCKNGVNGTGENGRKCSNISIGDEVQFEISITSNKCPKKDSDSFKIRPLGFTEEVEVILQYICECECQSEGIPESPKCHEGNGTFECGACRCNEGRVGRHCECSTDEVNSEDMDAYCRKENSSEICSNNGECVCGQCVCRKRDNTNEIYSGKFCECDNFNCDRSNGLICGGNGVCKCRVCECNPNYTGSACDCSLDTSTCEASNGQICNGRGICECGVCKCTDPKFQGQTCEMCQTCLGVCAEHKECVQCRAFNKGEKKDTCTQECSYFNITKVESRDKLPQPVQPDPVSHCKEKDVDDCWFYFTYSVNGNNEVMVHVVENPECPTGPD
Chain of αvβ6 (P06756 31-992 limits assumed): as the sequence (P06756 31-992 limits assumed) above
Chain of αvβ6 (P18564 22-707 limits assumed): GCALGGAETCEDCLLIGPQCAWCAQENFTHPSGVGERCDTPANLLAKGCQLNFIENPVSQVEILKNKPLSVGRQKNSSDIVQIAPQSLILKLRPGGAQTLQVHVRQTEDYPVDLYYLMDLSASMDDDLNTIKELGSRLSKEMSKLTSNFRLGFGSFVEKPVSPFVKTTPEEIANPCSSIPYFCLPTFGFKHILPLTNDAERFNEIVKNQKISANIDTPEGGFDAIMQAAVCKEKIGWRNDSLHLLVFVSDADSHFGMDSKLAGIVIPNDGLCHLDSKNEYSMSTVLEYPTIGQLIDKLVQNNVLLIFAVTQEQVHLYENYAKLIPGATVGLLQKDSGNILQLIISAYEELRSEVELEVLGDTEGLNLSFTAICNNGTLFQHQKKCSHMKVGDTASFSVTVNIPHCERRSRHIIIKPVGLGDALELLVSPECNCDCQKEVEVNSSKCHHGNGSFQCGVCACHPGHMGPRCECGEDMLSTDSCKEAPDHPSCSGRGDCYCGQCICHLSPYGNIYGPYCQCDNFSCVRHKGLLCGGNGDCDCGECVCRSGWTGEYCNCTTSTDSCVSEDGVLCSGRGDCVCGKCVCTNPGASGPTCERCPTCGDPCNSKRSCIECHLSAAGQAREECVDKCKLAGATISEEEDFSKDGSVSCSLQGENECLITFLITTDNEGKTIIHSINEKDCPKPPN

As to `CC1(C)CN(c2cccc([C@H](CC(=O)O)NC(=O)[C@@H]3CCCN(CCCc4ccc5c(n4)NCCC5)C3)c2)CC(C)(C)O1` [Compound 242, (S)-3-((R)-1-(3-(5,6,7,8-tetrahydro-1,8-naphthyridin-2-yl)propyl)piperidine-3-carboxamido)-3-(3-(2,2,6,6-tetramethylmorpholino)phenyl)propanoic acid], the IC50 at αvβ1 and on αvβ6 was below 100 nM each time.
Turning to `O=C(O)C[C@H](NC(=O)[C@@H]1CCCN(CCCc2ccc3c(n2)NCCC3)C1)c1ccc(F)c(C2CC2)c1` [Compound 244-A, 3-(3-cyclopropyl-4-fluorophenyl)-3-((R)-1-(3-(5,6,7,8-tetrahydro-1,8-naphthyridin-2-yl)propyl)piperidine-3-carboxamido)propanoic acid], the half-inhibitory concentration (IC50) on αvβ1 and against αvβ6 was below 100 nM each time.
In the case of `O=C(O)C[C@@H](NC(=O)[C@@H]1CCCN(CCCc2ccc3c(n2)NCCC3)C1)c1ccc(F)c(C2CC2)c1` [Compound 244-B, 3-(3-cyclopropyl-4-fluorophenyl)-3-((R)-1-(3-(5,6,7,8-tetrahydro-1,8-naphthyridin-2-yl)propyl)piperidine-3-carboxamido)propanoic acid], the IC50 against αvβ1 and at αvβ6 was below 100 nM in each case.
Take `O=C(O)C[C@H](NC(=O)[C@@H]1CCCN(CCCc2ccc3c(n2)NCCC3)C1)c1cc(C2CC2)ccc1F` [Compound 245-A, 3-(5-cyclopropyl-2-fluorophenyl)-3-((R)-1-(3-(5,6,7,8-tetrahydro-1,8-naphthyridin-2-yl)propyl)piperidine-3-carboxamido)propanoic acid]: the IC50 on αvβ1 is 100 to 1000 nM; against αvβ6 it was below 100 nM.
For `O=C(O)C[C@@H](NC(=O)[C@@H]1CCCN(CCCc2ccc3c(n2)NCCC3)C1)c1cc(C2CC2)ccc1F` [Compound 245-B, 3-(5-cyclopropyl-2-fluorophenyl)-3-((R)-1-(3-(5,6,7,8-tetrahydro-1,8-naphthyridin-2-yl)propyl)piperidine-3-carboxamido)propanoic acid], the 50% inhibitory concentration (IC50) on αvβ1 and against αvβ6 was below 100 nM throughout.
`O=C(NC[C@@H](C(=O)O)c1ccccc1)[C@@H]1CCCN(CCCc2ccc3c(n2)NCCC3)C1` [Compound 246, (S)-2-phenyl-3-((R)-1-(3-(5,6,7,8-tetrahydro-1,8-naphthyridin-2-yl)propyl)piperidine-3-carboxamido)propanoic acid]: the concentration for half-maximal inhibition (IC50) against αvβ1 and against αvβ6 was below 100 nM throughout.
Regarding `O=C(NC[C@H](C(=O)O)c1ccccc1)[C@@H]1CCCN(CCCc2ccc3c(n2)NCCC3)C1` [Compound 247, (R)-2-phenyl-3-((R)-1-(3-(5,6,7,8-tetrahydro-1,8-naphthyridin-2-yl)propyl)piperidine-3-carboxamido)propanoic acid], the half-inhibitory concentration (IC50) on αvβ1 and against αvβ6 was below 100 nM throughout.
On to `O=C(NC[C@H](C(=O)O)c1ccc2c(c1)CCCC2)[C@@H]1CCCN(CCCc2ccc3c(n2)NCCC3)C1` [Compound 248-A, 3-((R)-1-(3-(5,6,7,8-tetrahydro-1,8-naphthyridin-2-yl)propyl)piperidine-3-carboxamido)-2-(5,6,7,8-tetrahydronaphthalen-2-yl)propanoic acid], for which the concentration for half-maximal inhibition (IC50) on αvβ1 and against αvβ6 was 100 to 1000 nM each time.
As to `O=C(NC[C@@H](C(=O)O)c1ccc2c(c1)CCCC2)[C@@H]1CCCN(CCCc2ccc3c(n2)NCCC3)C1` [Compound 248-B, 3-((R)-1-(3-(5,6,7,8-tetrahydro-1,8-naphthyridin-2-yl)propyl)piperidine-3-carboxamido)-2-(5,6,7,8-tetrahydronaphthalen-2-yl)propanoic acid], the IC50 on αvβ1 and against αvβ6 was below 100 nM in each case.
Regarding `O=C(NC[C@H](C(=O)O)c1ccc2ccccc2c1)[C@@H]1CCCN(CCCc2ccc3c(n2)NCCC3)C1` [Compound 249-A, 2-(naphthalen-2-yl)-3-((R)-1-(3-(5,6,7,8-tetrahydro-1,8-naphthyridin-2-yl)propyl)piperidine-3-carboxamido)propanoic acid], the IC50 against αvβ1 and at αvβ6 was below 100 nM throughout.
As for `O=C(NC[C@@H](C(=O)O)c1ccc2ccccc2c1)[C@@H]1CCCN(CCCc2ccc3c(n2)NCCC3)C1` [Compound 249-B, 2-(naphthalen-2-yl)-3-((R)-1-(3-(5,6,7,8-tetrahydro-1,8-naphthyridin-2-yl)propyl)piperidine-3-carboxamido)propanoic acid], the 50% inhibitory concentration (IC50) at αvβ1 and against αvβ6 was below 100 nM each time.
For the molecule `O=C(NC[C@@H](C(=O)O)c1cccc2ccccc12)[C@@H]1CCCN(CCCc2ccc3c(n2)NCCC3)C1` [Compound 250-A, 2-(naphthalen-1-yl)-3-((R)-1-(3-(5,6,7,8-tetrahydro-1,8-naphthyridin-2-yl)propyl)piperidine-3-carboxamido)propanoic acid], the half-inhibitory concentration (IC50) against αvβ1 and against αvβ6 was below 100 nM each time.
As to `O=C(NC[C@H](C(=O)O)c1cccc2ccccc12)[C@@H]1CCCN(CCCc2ccc3c(n2)NCCC3)C1` [Compound 250-B, 2-(naphthalen-1-yl)-3-((R)-1-(3-(5,6,7,8-tetrahydro-1,8-naphthyridin-2-yl)propyl)piperidine-3-carboxamido)propanoic acid], the half-maximal inhibitory concentration (IC50) is 100 to 1000 nM at αvβ1 and above 1000 nM against αvβ6.
For `O=C(NC[C@@H](C(=O)O)c1cccc(Oc2ccccc2)c1)[C@@H]1CCCN(CCCc2ccc3c(n2)NCCC3)C1` [Compound 251-A], the IC50 on αvβ1 and on αvβ6 was 100 to 1000 nM in each case.
As for `O=C(NC[C@H](C(=O)O)c1cccc(Oc2ccccc2)c1)[C@@H]1CCCN(CCCc2ccc3c(n2)NCCC3)C1` [Compound 251-B], the IC50 against αvβ1 and on αvβ6 was below 100 nM each time.
On to `O=C(NC[C@@H](C(=O)O)c1cccc(C(F)(F)F)c1)[C@@H]1CCCN(CCCc2ccc3c(n2)NCCC3)C1` [Compound 252-A, 3-((R)-1-(3-(5,6,7,8-tetrahydro-1,8-naphthyridin-2-yl)propyl)piperidine-3-carboxamido)-2-(3-(trifluoromethyl)phenyl)propanoic acid], for which the IC50 against αvβ1 was below 100 nM; against αvβ6, 100 to 1000 nM.
`O=C(NC[C@H](C(=O)O)c1cccc(C(F)(F)F)c1)[C@@H]1CCCN(CCCc2ccc3c(n2)NCCC3)C1` [Compound 252-B, 3-((R)-1-(3-(5,6,7,8-tetrahydro-1,8-naphthyridin-2-yl)propyl)piperidine-3-carboxamido)-2-(3-(trifluoromethyl)phenyl)propanoic acid]: the half-inhibitory concentration (IC50) was above 1000 nM on αvβ1 and below 100 nM against αvβ6.
In the case of `O=C(NC[C@H](C(=O)O)c1cccc2c1CCCC2)[C@@H]1CCCN(CCCc2ccc3c(n2)NCCC3)C1` [Compound 253-A, 3-((R)-1-(3-(5,6,7,8-tetrahydro-1,8-naphthyridin-2-yl)propyl)piperidine-3-carboxamido)-2-(5,6,7,8-tetrahydronaphthalen-1-yl)propanoic acid], the concentration for half-maximal inhibition (IC50) on αvβ1 and on αvβ6 was below 100 nM throughout.
Consider `O=C(NC[C@@H](C(=O)O)c1cccc2c1CCCC2)[C@@H]1CCCN(CCCc2ccc3c(n2)NCCC3)C1` [Compound 253-B, 3-((R)-1-(3-(5,6,7,8-tetrahydro-1,8-naphthyridin-2-yl)propyl)piperidine-3-carboxamido)-2-(5,6,7,8-tetrahydronaphthalen-1-yl)propanoic acid], for which the half-maximal inhibitory concentration (IC50) against αvβ1 is 100 to 1000 nM; against αvβ6, above 1000 nM.
For `O=C(NC[C@H](C(=O)O)c1ccc2c(c1)CCC2)[C@@H]1CCCN(CCCc2ccc3c(n2)NCCC3)C1` [Compound 254-A, 2-(2,3-dihydro-1H-inden-5-yl)-3-((R)-1-(3-(5,6,7,8-tetrahydro-1,8-naphthyridin-2-yl)propyl)piperidine-3-carboxamido)propanoic acid], in that order: below 100 nM and 100 to 1000 nM.
For `O=C(NC[C@@H](C(=O)O)c1ccc2c(c1)CCC2)[C@@H]1CCCN(CCCc2ccc3c(n2)NCCC3)C1` [Compound 254-B, 2-(2,3-dihydro-1H-inden-5-yl)-3-((R)-1-(3-(5,6,7,8-tetrahydro-1,8-naphthyridin-2-yl)propyl)piperidine-3-carboxamido)propanoic acid], in that order: below 100 nM and below 100 nM.
For the molecule `O=C(O)C(CNC(=O)[C@@H]1CCCN(CCCc2ccc3c(n2)NCCC3)C1)c1cccc(Br)c1` (stereo partly drawn) [Compound 255, 2-(3-bromophenyl)-3-((R)-1-(3-(5,6,7,8-tetrahydro-1,8-naphthyridin-2-yl)propyl)piperidine-3-carboxamido)propanoic acid hydrochloride], the IC50 against αvβ1 and on αvβ6 was below 100 nM each time.
On to `O=C(NC[C@@H](C(=O)O)c1cccc(-c2ccccc2)c1)[C@@H]1CCCN(CCCc2ccc3c(n2)NCCC3)C1` [Compound 256-A, 2-([1,1′-biphenyl]-3-yl)-3-((R)-1-(3-(5,6,7,8-tetrahydro-1,8-naphthyridin-2-yl)propyl)piperidine-3-carboxamido)propanoic acid], for which the IC50 against αvβ1 and on αvβ6 was 100 to 1000 nM throughout.
For the molecule `O=C(NC[C@H](C(=O)O)c1cccc(-c2ccccc2)c1)[C@@H]1CCCN(CCCc2ccc3c(n2)NCCC3)C1` [Compound 256-B, 2-([1,1′-biphenyl]-3-yl)-3-((R)-1-(3-(5,6,7,8-tetrahydro-1,8-naphthyridin-2-yl)propyl)piperidine-3-carboxamido)propanoic acid], the IC50 against αvβ1 and on αvβ6 was below 100 nM each time.
`Cc1cc(C)n(-c2cccc([C@H](CNC(=O)[C@@H]3CCCN(CCCc4ccc5c(n4)NCCC5)C3)C(=O)O)c2)n1` [Compound 257-A, 2-(3-(3,5-dimethyl-1H-pyrazol-1-yl)phenyl)-3-((R)-1-(3-(5,6,7,8-tetrahydro-1,8-naphthyridin-2-yl)propyl)piperidine-3-carboxamido)propanoic acid]: the half-maximal inhibitory concentration (IC50) against αvβ1 and at αvβ6 was below 100 nM in each case.
